Patent publication US9193746B2, “Luminescent metal complexes and associated technology” (BIOTIUM, INC., priority 2006, dated 2015)

Test system: electrophoretically separated proteins (Precision Plus Protein Standard) in a SDS-PAGE gel
Experiment: Detection of electrophoretically separated proteins in a SDS-PAGE gel by luminescent staining
Settings: for Staining of proteins in gel (yes/no): Example 18, FIG. 4: 1.5 μM complex, 30% MeOH, 14% acetic acid, room temperature, 90 minutes
Protocol: A gel preparation procedure is now described. Five μL of an unstained Precision Plus Protein Standard (Catalog No. 161-0363 from Bio-Rad Laboratories (Hercules, Calif.) (hereinafter, “Bio-Rad”)) were separated on the left column of a polyacrylamide pre-cast gel (Catalog No. 161-1176, a Ready Gel from Bio-Rad) in running buffer containing 20 mM glycine, 2.5 mM Tris and 0.1% SDS, using a standard SDS-PAGE procedure. Five 5 μL of the same standard diluted five times were separated on the right column of the polyacrylamide pre-cast gel under the same conditions.
The foregoing procedure was used to prepare one gel, which was further processed as described below using a particular staining solution. Separately, the same procedure was used to prepare another gel, which was further processed as described below using a different staining solution.
At the end of each of these periods, the gel was taken out of the solution, illuminated, and photographed, and if a further period remained, returned to the solution until the end of that further period. A UV transilluminator (300-nm wavelength) was used to illuminate the gel and Polaroid 667 black-and-white film was used to photograph the gel. The gel was not destained before being photographed.
A gel was prepared according to the gel preparation procedure described in connection with Example 15. The gel was then processed as now described. The gel was placed in a fixation solution comprising 50% MeOH and 7% acetic acid for 30 minutes to fix the gel. […] The gel was not destained before being photographed.
A gel was prepared according to the gel preparation procedure described in connection with Example 15. The gel was then processed as now described. The gel was placed in a fixation solution comprising 50% MeOH and 7% acetic acid for 1 hour to fix the gel. […] The gel was not destained before being photographed.
Three gels were prepared, each according to the gel preparation procedure described in connection with Example 15. One of the gels was stained using a staining solution comprising 1.5 μM of [Ru(bpy)3]Cl2 (Aldrich, Milwaukee, Wis.), wherein “bpy” is unsubstituted 2,2′-bipyridine, 30% MeOH and 14% acetic acid. Another of the gels was stained using a staining solution comprising 1.5 μM of [Ru(1,10-phenanthroline)3]Cl2 (Aldrich, Milwaukee, Wis.), 30% MeOH and 14% acetic acid. […] Each gel was stained by incubating it in the appropriate staining solution at room temperature for 90 minutes, whereupon each gel was taken out of the staining solution, illuminated and photographed in the manner described in connection with Example 15. No gel was destained before being photographed.

Molecule	Staining of proteins in gel (yes/no) (not destained)	Protein staining in gel (sensitivity, background) (Example 17, FIG. 3: fixed gel, 2 μM complex, 1% ethanol in H2O, overnight, not destained)	Protein staining compared with SYPRO Ruby stain (Example 17, FIG. 3 versus FIG. 1, without destaining)
[Cl][Ru][Cl].c1cnc2c(c1)ccc1cccnc12.c1cnc2c(c1)ccc1cccnc12.c1cnc2c(c1)ccc1cccnc12 [[Ru(1,10-phenanthroline)3]Cl2]	failed to stain proteins	–	–
[Cl][Ru][Cl].c1ccc(-c2ccccn2)nc1.c1ccc(-c2ccccn2)nc1.c1ccc(-c2ccccn2)nc1 [[Ru(bpy)3]Cl2]	failed to stain proteins	–	–
Re[(bathocuproin disulfonate)(CO)3(4-phenylpyridine)]^−Na^+ [Complex No. 2]	–	good sensitivity and relatively low background	performing at least as well as, if not outperforming, SYPRO Ruby
